Measurements from patent US4264492A, “Enkephalin-like compounds in bovine adrenal medulla” (Hoffmann-La Roche Inc., priority 1979, dated 1981).
Where “and” joins values, the source holds several entries; their conditions need not be identical. Equal entries are not always repeated.

Columns and labels:
mice [1] = assay: Analgesic assay, tail flick response after intracerebral ventrical injection; assay type: in vivo; conditions: individual mouse
rats = conditions: intracerebraventricular or intravenous administration to rats; cited from earlier work
[2] = tested on: C-terminal directed Leu-enkephalin antibody; assay: Radioimmunoassay, C-terminal directed antibody; assay type: binding; conditions: fractions from RP-18; 1.3 g wet weight of chromaffin granules isolated from 30 g of adrenal medulla
Experimental: (§1) Bovine adrenal glands were obtained from a local slaughterhouse and stored on ice until used (2 hrs). The medullas were dissected out and chromaffin granules prepared by the procedure of Smith and Winkler [Biochem. J., 103, & 80 (1967)]. The isolated chromaffin granules or whole adrenal medullas were homogenized (10:1 V/W) in 1 M acetic acid, 20 mM HCl containing 1μg/ml PMSF and pepstatin. The procedures for extraction, Sephadex column elution and trypsin digestion have been described [Lewis, R. V. et al., Proc. Nat'l. Acad. Sci., U.S.A. 75, & 021 (1978)]. The radioreceptor assay employed neuroblastoma x glioma hybrid cells [Gerber, L. D. et al., Brain Res. 1515, 117 (1978)] with ^3 H-Leuenkephalin as the competing ligand. Radioimmunoassays were performed using a C-terminal directed Leu-enkephalin antibody and a N-terminal directed Met-enkephalin antibody. The characteristics of these antibodies have been described previously [Lewis. R. V., et al. Biochem. Biophys. Res. Commun. 89, 822 (1979)] .
(§2) In order to determine whether fractions 6,7, and 16 were indeed separate entities differing chromatographically from the enkephalins, these fractions were lyophilized, redissolved and rechromatographed. Each opioid peptide eluted at its original position. […]

mice [3] = conditions: intracerebraventricular or intravenous administration to mice; cited from earlier work
[4] = tested on: N-terminal directed Met-enkephalin antibody; assay: Radioimmunoassay, N-terminal directed antibody; assay type: binding; conditions: fractions from RP-18; 1.3 g wet weight of chromaffin granules isolated from 30 g of adrenal medulla
Experimental: as §1, §2

Row | Substance | Response (mice [1]; Dose 4.5nm, Volume 5nl) | Tail flick response, Post Injection Time 20 (mice [1]; Dose 4.5nm, Volume 5nl) | analgesia (rats) | Radioimmunoassay C-Terminal [2] | analgesia (mice [3]) | Radioimmunoassay N-Terminal [4] | Response (mice [1]; Dose 120 nm, Volume 10nl.) | Tail flick response, Post Injection Time 10 (mice [1]; Dose 120 nm, Volume 10nl.) | Tail flick response, Post Injection Time 2 min. (mice [1]; Dose 120 nm, Volume 10nl.)
1 | Beta-endorphin (YGGFMTSEKSQTPLVTLFKNAIIKNAYKKGE; Beta-endorphin; UniProt P01189 237-267, looked up) | Pos. and Neg. | 8 | – | – | – | – | – | – | –
2 | Leu-enkephalin [Leu-enk (std)] | – | – | weak and short lined anagesia | 1.0 nmoles/fraction | weak and short lined anagesia | 0.4 nmoles/fraction | – | – | –
3 | methionine enkephalin [Met Enk] | – | – | weak and short lined anagesia | 0.03 nmoles/fraction | weak and short lined anagesia | 1.0 nmoles/fraction | Neg. | 6.3 and 5.9 and 5.0 | 4.0 and 4.7
